# Entries after “also recorded” stand apart in the source; their conditions may differ. Non-standard residues stand in square brackets, D forms with d. Residues, ends and D or L forms follow the SMILES beside them. *: point of attachment. Phe(F5) = N[C@@H](Cc1c(F)c(F)c(F)c(F)c1F)C(=O)O; hArg = N=C(N)NCCCC[C@H](N)C(=O)O; 12Ado = NCCCCCCCCCCCC(=O)O; Nle = CCCC[C@H](N)C(=O)O; Orn = NCCC[C@H](N)C(=O)O; Abu = CC[C@H](N)C(=O)O; PhAc = O=C(Cc1ccccc1)*
# Legend:
# [1] = system: bleomycin-induced lung inflammation and fibrosis; assay: Bleomycin mouse model, lung histopathology scores; type: in vivo, C57Bl/6J mice; details: bleomycin-treated mice
# Protocol: Abstract. Purpose. Growth hormone-releasing hormone (GHRH) is a 44-amino acid peptide that regulates growth hormone (GH) secretion. It was tested whether a GHRH receptor (GHRH-R) antagonist, MIA-602, would inhibit bleomycin-induced lung inflammation and/or fibrosis in C57Bl/6J mice. Methods. It was tested whether MIA-602 (5 μg or vehicle given subcutaneously [SC] on days 1-21) would decrease lung inflammation (at day 14) and/or fibrosis (at day 28) in mice treated with intraperitoneal (IP) bleomycin (0.8 units on days 1, 3, 7, 10, 14 and 21). […] Results. Inflammation (histopathologic scores assessed blindly) was less evident in mice treated with MIA-602 for 14 days. […] GHRH-R antagonist increased basal and maximal oxygen consumption of cultured lung fibroblasts. […] Conclusions. MIA-602 reduced lung inflammation and fibrosis due to bleomycin.
# Experimental animals. 8-week old C57Bl/6J male mice (The Jackson Laboratory, Bar Harbor, Me.) were used in these experiments. Mice weighed about 26 grams at the start. Mice were randomly allocated to the experimental groups and housed in identical filter top cages in a ventilated rack. Mice were exposed to a 12-hour light/dark cycle and had free access to standard laboratory chow and water.
# Bleomycin and GHRH-R antagonist treatment. Mice were treated with 0.8 units of bleomycin (Bleomycin for Injection USP, Hospira, Lake Forest, Ill.) intraperitoneally (IP) on days 1, 3, 7, 10, 14 and 21 (Collins S, Chan-Li Y, Oh M, Vigeland C, Limjunyawong N, Mitzner W, Powell J D, Horton M R (2016). JCI Insight 1(4):1-13). Mice (randomly assigned) were simultaneously treated subcutaneously (sc) with MIA-602 (5 μg/day) or its vehicle (100 μL/day). MIA-602 was dissolved in DMSO (ACS grade; Sigma-Aldrich) and diluted 1:500 in normal saline for daily sc injection on days 0-21.
# Tissue preparations. Mice were killed by CO2 inhalation before any treatment, or on days 14 or 28 for micro-CT scans of lungs and harvesting of lung tissue (Vande Vel de G, Poelmans J, De Langhe E, Hillen A, Vanoirbeek J, Himmelreich U, Lories R (2016). Dis Model Mech 9:91). The right mainstem bronchus was ligated and the right lung removed and frozen at −80° C. for hydroxyproline (HP) assays. The left lung was filled with 10% buffered formalin at […] cm H2O pressure, the bronchus ligated, and the lung fixed in formalin. Fixed lungs were embedded in wax and 5 μm sections stained with hematoxylin and eosin (H&E) or Masson's trichrome stain.
# Lung histopathology. Fibrosis was quantified in trichrome-stained sections using a modification of the Ashcroft score that describes grades of fibrosis. Inflammation in lung tissue was quantified in H&E stained sections (Hubner R, Gitter W, El Mokhtari N, Mathiak M, Both M, Bolte H, Freitag-Wolf S, Bewig B (2008). Biotechniques 44:507-517).
# Data analysis. Data are reported as arithmetic means±SEM or SD as indicated. Confidence intervals (5-95%) and ranges were used to describe histopathological scores. ANOVA followed by Dunnett's test or the Bonnferoni correction was used for multiple comparisons with a control or among groups (Kusuoka H, Hoffman J (2002). Circ Res 91:662-671). At least six mice were planned to be available at each time point in each group, so that there would be sufficient power to detect a 20% change in lung hydroxyproline given an assumed coefficient of variance of 0.2. P≤0.05 was considered significant.
# [2] = system: cellular levels of oxidant stress; details: Barbutis and Schally 2008; cited from earlier work
# [3] = system: gene expression in mouse lung tissue; assay: RNAseq and pathway analysis of lung tissue of bleomycin-treated mice; type: in vivo, C57Bl/6J mice; details: bleomycin 28 days, MIA-602 vs vehicle
# Protocol: RNA isolation. RNA was extracted from fixed lung tissue in paraffin blocks using a Quick-RNA™ FFPE Kit (R1008, Zymo Research, Irvine, Calif.) following the manufacturer's protocol (Patel P, Selvarajah S, Guerard K, Bartlett J, Lapointe J, Berman D, Okello J, Park P (2017). PLoS ONE 12:e0179732). Samples were deparaffinized, digested with proteinase K and decrosslinked at 65° C. for 15 minutes. RNA lysis buffer was added and mixed with ethanol. The mixtures were transferred to spin columns to isolate total RNA.
# RNAseq and Pathway analyses. At least 10 ng of total RNA was used as input for the KAPA RNA HyperPrep Kit with RiboErase (HMR) to create ribosomal RNA-depleted sequencing libraries, including sample indexing, to allow for multiplexing. Cluster generation and sequencing was done on the Illumina cBOT and HiSeq 3000 using reagents provided by Illumina, finally generating >32 million single-end 100 base reads per sample.
# De-multiplexed FASTQ files were created with Illumina supplied scripts in BCL2FASTQ software (v2.17). […]
# Gene counts were normalized using trimmed mean of M-values (TMM) method. Differential expression between groups was calculated with the exact test implemented in edgeR (Robinson M, McCarthy D, Smyth G (2010). Bioinformatics 26:139-140). […]
smiles,measurement,setting,value
"CCCC[C@H](NC(=O)[C@@H](NC(=O)[C@H](CC(=O)O)NC(=O)[C@H](CCC(N)=O)NC(=O)[C@H](CC(C)C)NC(=O)[C@H](CC(C)C)NC(=O)[C@H](CCCN)NC(=O)[C@H](Cc1c[nH]cn1)NC(=O)[C@H](C)NC(=O)[C@H](CO)NC(=O)[C@H](CC(C)C)NC(=O)[C@H](CCC(N)=O)NC(=O)[C@H](CC)NC(=O)[C@H](CC(C)C)NC(=O)[C@@H](NC(=O)[C@H](CCCN)NC(=O)[C@H](Cc1c[nH]cn1)NC(=O)[C@H](Cc1ccc(OC)cc1)NC(=O)[C@H](CCCCNC(=N)N)NC(=O)[C@H](C)NC(=O)[C@@H](NC(=O)[C@H](Cc1c(F)c(F)c(F)c(F)c1F)NC(=O)[C@@H](NC(=O)[C@H](C)NC(=O)[C@H](CC(=O)O)NC(=O)[C@@H](CCCNC(=N)N)NC(=O)[C@H](Cc1ccc(O)cc1)NC(=O)CCCCCCCCCCCNC(=O)Cc1ccccc1)[C@@H](C)CC)[C@@H](C)O)C(C)C)[C@@H](C)CC)C(=O)N[C@H](CCCNC(=N)N)C(=O)N[C@@H](CCCCNC(=N)N)C(N)=O [MIA-602, PhAC-Ada, Tyr D-Arg, Asp, Ala, Ile, 5FPhe, Thr, Ala, Har, Tyr(Me), His, Orn, Val, Leu, Abu, Gin, Leu, Ser, Ala, His, Om, Leu, Leu, Gin, Asp, Ile; Nle, D-Arg, Har NH2, reference compound] ({PhAc-12Ado}-Y[dR]DAI[Phe(F5)]TA[hArg]Y(Me)H[Orn]VL[Abu]QLSAH[Orn]LLQDI[Nle][dR][hArg]-NH2)","lung inflammation histopathologic score, 5%-95% CI","[1]; after 14 days, n=4",0.4-1.4
same,"lung inflammation histopathologic score, range","[1]; after 14 days, n=4",0.6-1.2
same,"lung fibrosis histopathologic score (modified Ashcroft), 5%-95% CI","[1]; after 28 days, n=5",1.1-2.9
same,"lung fibrosis histopathologic score (modified Ashcroft), range","[1]; after 28 days, n=5",1.0-3.0
same,"lung fibrosis, histopathology (in words)",[1]; MIA-602 vs vehicle,decreased; also recorded: Less fibrosis appeared to be present
same,"lung inflammation, histopathology (in words)",[1]; MIA-602 vs vehicle,decreased; also recorded: Less inflammation appeared to be present
same,cellular levels of oxidant stress (in words),[2],decreased
same,"lung gene expression, RNA-seq pathway analysis (in words)",[3],"suppression of the adaptive immune response, T cell differentiation and activation and cytokine production; also recorded: downregulation of T cell receptor complex genes (CD3E, CD3G, CD4, and CD8A)"
